# Test results from patent US11136301B2, “Broad spectrum antiviral compounds and uses thereof” (The Regents Of The University Of California, priority 2015, dated 2021).
# Entries after “also recorded” stand apart in the source; their conditions may differ. Where two headings read alike, the source gives them in different places.
# Experiments:
# Ebola virus = format: cell-based; settings: FIG. 19
# Zika virus = assay: Zika viral replication inhibition; format: cell-based; settings: FIG. 20
# [1] = system: wild-type HIV-1 (HIV-1LAI) in H9 cells (non-permissive); assay: microbe, parasite or virus in culture; format: cell-based
# [2] = system: wild-type HIV-1 (HIV-1LAI) in MT-4 cells (permissive); assay: Antiviral activity assay: wild-type HIV-1 in permissive MT4 cells, reverse transcriptase activity in culture supernatants; format: cell-based
# [3] = system: Vif-A3G-HSP90-Cul5-CBF-β E3 ligase complex; assay: Immunoprecipitation of IMA82-interacting proteins / E3 ligase complex; format: cell-based
# Description: Cells were washed twice with PBS and lysed in IP lysis buffer (Thermo) or in a buffer composed of 50 mM Tris-HCl (pH 7.2), 150 mM NaCl, 1% NP-40, 10% glycerol, and protease inhibitor cocktail. Cell lysates ([…]) were incubated with 5 μl of rat anti-HA (Roche), rabbit anti-GFP (Cell Signaling), mouse anti-Hsp90 (Millipore), or rabbit anti-Cul5 (Sigma) plus 30 μl of protein A or G DYNABEADS® (Invitrogen) and rotated at RT for 2 h. The beads were washed three times with PBS containing 0.05% Tween 20. Each lysate was immunoprecipitated in triplicate and the beads were combined. Immune complexes were eluted by boiling in 5×SDS sample buffer. The proteins were separated by SDS-PAGE and analyzed by immunoblotting with antibodies to HA (A3G), GFP (Vif), Hsp90, Cul5, and CBF-β, as described above.
# [4] = system: A3G and Vif levels in HSP90 or Cul5 knockdown cells
# [5] = system: polyubiquitination of A3G and Vif; assay: Ubiquitination assay in 293FT cells; format: cell-based; settings: 293FT cells expressing HA-A3G and GFP-Vif, 10 μM, ALLN
# Description: Cells were incubated with or without 10 μM of IMA82, IMD55, or IMD64 for 16 h, and then with or without 10 μM of the calpain inhibitor ALLN for 4 h. The cells were washed once with PBS and lysed. Samples of 200 μg protein were immunoprecipitated by the addition of rat anti-HA (Roche) or mouse anti-GFP (Wako) antibodies (7 μg) and 50 μl protein G DYNABEADS® (Invitrogen) and rotated at RT for 2 h. The beads were washed three times with PBS containing 0.05% Tween 20 and boiled in 5×SDS sample buffer. The denatured proteins were resolved and electroblotted onto PVDF membranes. The membranes were probed with rabbit anti-ubiquitin, rabbit anti-HA, or rabbit anti-GFP antibodies, as described above.
# [6] = system: A3G and Vif levels in HSP90 or Cul5 knockdown cells; assay: Knockdown of Hsp90 and Cul5 followed by IMA82 treatment, immunoblot
# HSP90 = assay: ViTAP (Vif inhibitor Target Affinity Purification): streptavidin affinity purification of compound-bound proteins; format: binding
# [7] = system: A3G, Vif, p24, HSP90 in HIV-1LAI-infected H9 and MT4 cells; assay: Protein analysis (immunoblot) of HIV-1 infected H9 and MT4 cells; format: cell-based; settings: for HIV-1 p24 levels: 72 h
# Description: Non-permissive (H9) and permissive (MT4) cells were treated with 1% DMSO, IMA82, or 17-DMAG overnight and then infected with HIV-1LAI for 5 h. Cells were washed three times with PBS and cultured in medium for 72 h in the presence of the same concentrations of DMSO, IMA82, or 17-DMAG. Total cell lysates were prepared with M-PER buffer containing 0.5% Triton X-100, 150 mM NaCl, 5 mM EDTA, and protease inhibitor cocktail. Protein concentrations were determined with the DC protein assay kit (Bio-Rad). Immunoblotting was performed as described above.
# [8] = system: HA-tagged A3G and GFP-tagged Vif or ΔVif in 293FT cells; assay: Immunoblot of A3G and Vif levels in transfected 293FT cells; settings: 16 h
# [9] = system: HSP90-A3G interaction (GST-Hsp90, recombinant human A3G); assay: In vitro binding of purified GST-HSP90 and recombinant A3G; settings: purified proteins, 50 μM in 1% DMSO
# [10] = system: APOBEC3G, Vif and cellular Hsp90 substrates (AKT, HER2); assay: Western blot of viral and cellular proteins in 293T cells co-transfected with HIV-1 (pLAI2) and HA-tagged APOBEC3G; format: cell-based; settings: 50 μM, 24 h
# Description: FIG. 13. […] 293T cells were co-transfected with HIV-1 (pLAI2) and HA-tagged APOBEC3G vectors and cultured for 24 h in the presence (+) or absence (−) of 50 μM RN-18. Cell lysates were collected and used for Western blot analysis with antibodies against the viral and cellular proteins indicated. Levels of cellular GAPDH were used as a loading control.
# Both RN-18 and 17-AAG interact with HSP90 in Cul5 mediated E3 ligase complex. […] Cell lysates were prepared and various viral and cellular protein levels were analyzed by immunoblotting (FIG. 13). Levels of cellular GAPDH were used as loading controls.
# [11] = system: wild-type HIV-1 (HIV-1LAI) in MT-4 cells (permissive); settings: 100 μM; cited from earlier work
# [12] = system: wild-type HIV-1 (HIV-1LAI) in H9 cells (non-permissive); settings: earlier finding on RN-18; cited from earlier work
# HIV-1 in CEM cells = settings: CEM cells (non-permissive); cited from earlier work
# [13] = Human immunodeficiency virus 1, H9, read-out: Antiviral activity (IC50 μM) H9 cells, Table 5, wild-type HIV-1, non-permissive H9 cells
# [14] = Human immunodeficiency virus 1, H9, read-out: Antiviral activity (IC50 μM) H9 cells, Table 8, wild-type HIV-1, non-permissive H9 cells
# [15] = Human immunodeficiency virus 1, H9, read-out: Antiviral activity (IC50 μM) H9 cells, wild-type HIV-1 (HIV-1LAI), H9 cells (non-permissive), RT activity in culture supernatants, compounds 1 to 50 μM
# [16] = Human immunodeficiency virus 1, H9, read-out: IC50, anti-HIV-1 activity, non-permissive H9 cells
smiles,measurement,setting,value
"COC(=O)c1ccc(Sc2ccccc2-c2cn(-c3ccc(OC)cc3OC)nn2)cc1 [Compound 4bx, Methyl 4-((2-(1-(2,4-dimethoxyphenyl)-1H-1,2,3-triazol-4-yl)phenyl)thio)benzoate]",Ebola viral replication,Ebola virus,Ebola viral replication inhibition
same,Zika viral replication,Zika virus,Zika viral replication inhibition
same,IC50,[1]; [13],2 µM
same,IC50,[1]; [14],2 µM
same,IC50,[1]; [15],2 µM
"COc1ccc(OC)c(-n2cc(-c3ccccc3S(=O)(=O)c3ccc([N+](=O)[O-])cc3)nn2)c1 [Compound 5ay, 1-(2,5-Dimethoxyphenyl)-4-(2-((4-nitrophenyl)sulfonyl)phenyl)-1H-1,2,3-triazole]",Ebola viral replication,Ebola virus,Ebola viral replication inhibition
same,IC50,"[2]; Human immunodeficiency virus 1, MT4, Table 2, wild-type HIV-1, permissive MT4 cells, read-out: Antiviral activity (IC50 μM) MT4",> 50 µM
same,IC50,"[2]; Human immunodeficiency virus 1, MT4, wild-type HIV-1 (HIV-1LAI), MT4 cells (permissive), RT activity in culture supernatants, compounds 1 to 50 μM, read-out: Antiviral activity (IC50 μM) MT4 cells",> 50 µM
same,IC50,"[1]; Human immunodeficiency virus 1, H9, read-out: Antiviral activity (IC50 μM) H9, Table 2, wild-type HIV-1, non-permissive H9 cells",1 µM
same,IC50,"[1]; Human immunodeficiency virus 1, H9, read-out: Antiviral activity (IC50 μM) H9 Cells, Table 4, wild-type HIV-1, non-permissive H9 cells",1 µM
same,IC50,"[1]; Human immunodeficiency virus 1, H9, read-out: Antiviral activity (IC50 μM) H9 Cells, Table 7, wild-type HIV-1, non-permissive H9 cells",1 µM
same,IC50,[1]; [13],1 µM
same,IC50,[1]; [14],1 µM
same,IC50,[1]; [15],1 µM
same,IC50,[1]; [16],1 to 3 µM
"COc1cc(C(=O)NCCOCCOCCOCCNC(=O)CCCCC2SCC3NC(=O)NC32)ccc1NC(=O)c1ccc(Sc2ccc([N+](=O)[O-])cc2)cc1Cl (centres unmarked) [IMA82, 2-chloro-N-(2-methoxy-4-((13-oxo-17-(2-oxohexahydro-1H-thieno[3,4-d]imidazol-4-yl)-3,6,9-trioxa-12-azaheptadecyl)carbamoyl)phenyl)-4-((4-nitrophenyl)thio)benzamide]","HSP90-A3G interaction, FLAG-HSP90 affinity purification","[3]; 293FT cells transfected with FLAG-HSP90 and HA-A3G, 16 h",inhibited interactions of HSP90 and A3G
same,A3G association with the immunoprecipitated E3 ligase complexes,"[3]; 293FT-A3G-Vif and 293FT-A3G-ΔVif cells, 10 μM",prevents APOBEC3G association; also recorded: not present
same,A3G or Vif levels,[4],no effect
same,A3G ubiquitination,[5],not observed; also recorded: reduced
same,Vif ubiquitination,[5],ubiquitinated; also recorded: increased
same,A3G or Vif levels,[6]; Cul5-depleted 293FT-A3G-Vif cells,no further effect
same,A3G levels,[6]; control siRNA (siNT) 293FT-A3G-Vif cells,rescue of A3G levels
same,co-purification of HSP90 (90 kDa protein) with the compound,"HSP90; transfected 293FT cells, streptavidin affinity purification",HSP90 is targeted; also recorded: purified a specific 90 kDa protein; also recorded: co-purified with IMA82; also recorded: specifically interacts with HSP90
same,A3G levels,[7]; HIV-1-infected H9 cells,restored A3G levels
same,Vif levels,[7]; HIV-1-infected H9 cells,decreased Vif levels
same,HIV-1 p24 levels,[7]; HIV-1LAI-infected H9 cells,reduced
same,HIV-1 p24 levels,[7]; HIV-1LAI-infected MT4 cells,not MT4 cells
same,A3G expression,[8]; 293FT cells co-expressing HA-A3G and Vif or ΔVif,dose-dependently restored A3G expression; also recorded: enhances APOBEC3G expression
same,Vif expression / degradation,[8]; 293FT cells co-expressing HA-A3G and Vif,induces Cul5-mediated degradation of Vif; also recorded: enhanced Vif degradation; also recorded: reduces Vif expression
same,CBF-β levels,[8]; transfected 293FT cells,no effect on levels of CBF-β
same,HSP90 expression,[8]; transfected 293FT cells,did not significantly affect expression of HSP90 protein
same,viral replication (reverse transcriptase activity in supernatants),"[1]; H9 cells, HIV-1LAI, up to 50 μM, 15 days",dose-dependently inhibited viral replication
same,A3G binding to GST-HSP90,[9],block APOBEC3G association; also recorded: inhibited A3G binding to GST-HSP90
"COc1ccccc1NC(=O)c1ccccc1Sc1ccc([N+](=O)[O-])cc1 [RN-18, N-(2-methoxyphenyl)-2-((4-nitrophenyl)thio)benzamide]",levels of cellular Hsp90 substrates (AKT and HER2),[10],no effect on AKT and HER2 levels; also recorded: does not affect the levels of cellular Hsp90 substrates
same,A3G level,[10]; HIV-1 (pLAI2) and HA-A3G,restored A3G; also recorded: specifically restores APOBEC3G
same,Vif level,[10]; HIV-1 (pLAI2) and HA-A3G,enhanced degradation of Vif
same,IC50,"[2]; Human immunodeficiency virus 1, MT4, Table 1, wild-type HIV-1, permissive MT4 cells, read-out: Antiviral activity (IC50 μM) MT4 cells",> 50 µM
same,IC50,"[2]; Human immunodeficiency virus 1, MT4, Table 3, wild-type HIV-1, permissive MT4 cells, read-out: Antiviral activity (IC50 μM) MT4 cells",> 50 µM
same,inhibition of IMA82 (25 μM) binding to FLAG-tagged HSP90,"HSP90; competitive binding, 0-30 μM competitor, 293FT cells",dose-dependently inhibited
same,activity in MT4 cell line,[11],does not show any activity; also recorded: does not inhibit viral infectivity
same,IC50,[12],6000 nM
same,IC50,HIV-1 in CEM cells,4500 nM
same,viral replication (reverse transcriptase activity),"[1]; HSP90 knockdown H9 cells, 15 days",no effect
same,IC50,"[1]; Human immunodeficiency virus 1, H9, read-out: Antiviral activity (IC50 μM) H9 cells, Table 1, wild-type HIV-1, non-permissive H9 cells",6 µM
same,IC50,"[1]; Human immunodeficiency virus 1, H9, read-out: Antiviral activity (IC50 μM) H9 cells, Table 3, wild-type HIV-1, non-permissive H9 cells",6 µM
same,IC50,[1]; [16],6 µM
same,viral replication (reverse transcriptase activity),"[1]; shNT control H9 cells, 15 days",inhibited viral replication
